{"source": "paper PMC6395927", "about": "“Rufomycin Targets ClpC1 Proteolysis in Mycobacterium tuberculosis and M. abscessus” (Antimicrobial Agents and Chemotherapy, 2019)", "key": {"[1]": {"system": "M. tuberculosis strain H37Rv (ATCC 27294)", "assay": "microbe, parasite or virus in culture", "format": "cell-based, Mycobacterium tuberculosis", "details": "Mycobacterium tuberculosis"}, "M. marinum (ATCC 927)": {"system": "M. marinum (ATCC 927)", "assay": "microbe, parasite or virus in culture", "format": "cell-based", "details": "Mycobacterium marinum, ATCC927; M. marinum; read-out: MIC"}, "M. bovis (ATCC 35734)": {"system": "M. bovis (ATCC 35734)", "assay": "microbe, parasite or virus in culture", "format": "cell-based", "details": "Mycobacterium tuberculosis variant bovis, ATCC35734"}, "M. kansasii (ATCC 12478)": {"system": "M. kansasii (ATCC 12478)", "assay": "microbe, parasite or virus in culture", "format": "cell-based", "details": "Mycobacterium kansasii, ATCC12478; M. kansasii; read-out: MIC"}, "[2]": {"system": "M. abscessus in bone marrow-derived macrophages", "assay": "Intracellular survival assay in BMDMs", "format": "cell-based, Mycobacterium abscessus", "details": "2 days, 5 and 10 μM", "procedure": "Bone marrow-derived macrophages (BMDMs) were isolated from the femurs and tibias of C57BL/6 mice (5 to 6 weeks old) and differentiated by culturing for 4 days in DMEM containing 10% (vol/vol) FBS and 25 ng/ml of macrophage colony-stimulating factor (M-CSF; R&D, Minneapolis, MN). The final densities of differentiated BMDMs were 1 × 10^5 to 3 × 10^5 per well in 48-well plates. Cells were infected for 2 h with M. abscessus at a multiplicity of infection (MOI) of 5. Next cells were washed with PBS and incubated in DMEM containing 50 μg/ml of gentamicin (Sigma-Aldrich). RUFI and clarithromycin (CLR) were added to the media to achieve final concentrations of 5 and 10 μM, respectively, and then the cultures were incubated for 2 days. The supernatant was removed, and cells were lysed in sterile distilled water for 30 min at 37°C. Cell lysates were serially diluted, plated on 7H10 agar, and incubated at 37°C for 2 to 3 days for enumeration of CFU."}, "ClpC1/P1/P2 complex": {"target": "ClpC1/P1/P2 complex (Mycobacterium tuberculosis, UniProt P9WPC9)", "sequence (P9WPC9 whole entry, one chain of several)": "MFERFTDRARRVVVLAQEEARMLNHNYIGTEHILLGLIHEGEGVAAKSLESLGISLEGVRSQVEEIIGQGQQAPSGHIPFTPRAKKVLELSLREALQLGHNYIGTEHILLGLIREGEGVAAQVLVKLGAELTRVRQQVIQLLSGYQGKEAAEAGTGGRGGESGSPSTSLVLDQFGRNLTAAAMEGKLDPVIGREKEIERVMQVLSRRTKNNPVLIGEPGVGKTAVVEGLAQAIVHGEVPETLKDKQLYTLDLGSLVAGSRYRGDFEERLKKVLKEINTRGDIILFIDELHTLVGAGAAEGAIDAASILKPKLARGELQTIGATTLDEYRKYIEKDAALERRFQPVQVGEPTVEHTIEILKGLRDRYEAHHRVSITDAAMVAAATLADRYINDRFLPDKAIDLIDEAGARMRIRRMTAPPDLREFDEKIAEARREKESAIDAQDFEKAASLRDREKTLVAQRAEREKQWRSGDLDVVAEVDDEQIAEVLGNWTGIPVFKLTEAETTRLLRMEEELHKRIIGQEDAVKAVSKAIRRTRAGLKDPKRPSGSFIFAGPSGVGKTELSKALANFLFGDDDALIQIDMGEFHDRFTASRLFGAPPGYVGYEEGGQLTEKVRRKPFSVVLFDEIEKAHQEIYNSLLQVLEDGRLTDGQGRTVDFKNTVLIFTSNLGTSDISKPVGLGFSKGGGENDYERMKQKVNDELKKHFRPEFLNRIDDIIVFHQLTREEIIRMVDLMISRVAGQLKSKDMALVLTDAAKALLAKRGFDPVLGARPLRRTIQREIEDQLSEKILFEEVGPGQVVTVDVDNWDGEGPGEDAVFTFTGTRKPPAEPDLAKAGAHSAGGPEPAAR", "format": "biochemical, M. tuberculosis"}, "M. abscessus": {"system": "M. abscessus", "assay": "MBC against M. abscessus", "details": "Mycobacteroides abscessus", "description": "Parallel plates were processed as described for M. tuberculosis. The plates were incubated at 37°C for 5 days before CFU determination."}}, "note": "“Also recorded” adds a separate entry of the source. Read-outs that look alike come from different tables or passages of the source."}
{"smiles": "C/C=C/C[C@@H]1NC(=O)[C@H](CC(C)C)N2C(=O)C(C[C@H](C)[C@H]2O)N(C)C(=O)[C@H](C)NC(=O)[C@H](Cc2ccc(O)c([N+](=O)[O-])c2)NC(=O)[C@H](CC(C)C)N(C)C(=O)[C@H](Cc2cn(C(C)(C)C3CO3)c3ccccc23)NC1=O", "note": "(some centres unmarked) [RUFI, rufomycin I]", "values": [{"measurement": "MIC", "setting": "[1]", "value": 0.02, "unit": "µM"}, {"measurement": "MIC", "setting": "[1]; read-out: MIC against M. tuberculosis", "value": 0.01, "unit": "µM"}, {"measurement": "MIC", "setting": "M. marinum (ATCC 927)", "value": "< 0.02", "unit": "µM"}, {"measurement": "MIC", "setting": "M. bovis (ATCC 35734)", "value": "< 0.02", "unit": "µM"}, {"measurement": "MIC", "setting": "M. kansasii (ATCC 12478)", "value": 0.04, "unit": "µM"}, {"measurement": "activity against M. abscessus in BMDMs (CFU)", "setting": "[2]", "value": "as effective as clarithromycin"}, {"measurement": "effect on proteolytic activity of ClpC1/P1/P2 (FITC-casein degradation)", "setting": "ClpC1/P1/P2 complex", "value": "significantly decreased the proteolytic capabilities; also recorded: strongly inhibited"}, {"measurement": "MBC", "setting": "M. abscessus", "value": 1.2, "unit": "µM"}]}
